Legend:
Assay type in all cases: cell-based, human
[1] = test system: EDN1 (endothelin 1) gene; test: Gene expression assay by real-time PCR (EDN1) in melanocytes; details: melanocytes (KaMC), 2 nM substance P, 5 days
Experimental: (§1) Melanocytes (KaMC; KCTC 12015BP) deposited in the Korean Collection for Type Culture (KCTC) were cultured in M-254 medium (Gibco BRL, NY, USA) supplemented with Human Melanocyte Growth Supplement (HMGS; Gibco BRL, NY, USA) on a 6-well plate, while changing the medium every other day, in a 5% CO2 incubator at 37° C. until the cells occupied 95% of the plate area (95% confluence). […] The cells not treated with substance P or the alpine skullcap (Scutellaria alpina) extract of Example 1 were used as a control group. After removing the medium form the melanocytes cultured on the 6-well plate, the cells were washed 2 times with cold phosphate-buffered saline (PBS) and the remaining water was completely removed. […] 1 μL of the RNA was quantified using Synergy II (Biotek, USA). […] After adding 10 μL of Taqman Gene Expression Master Mix (Life Technologies, USA) and 1 μL of Assays-on-DemandTM (Life Technologies, USA) of NK1R (ACCESSION: NM_001058) and EDN1 (ACCESSION: NM_001168319) genes to 9 μL of the diluted cDNA, the expression of the genes was analyzed by relative quantification using 7500 Fast Real-Time PCR (Life Technologies, USA) with glyceraldehyde 3-phosphate dehydrogenase (GAPDH, ACCESSION: NM001256799) as a control gene. […]

[2] = test system: endothelin 1 (EDN1); test: Endothelin 1 ELISA assay of culture medium of treated melanocytes; details: melanocytes (KaMC), 2 nM substance P
Experimental: When the density of the melanocytes on the 6-well plate reached about 80% (˜80% confluence), they were incubated for a total of 5 days with 2 nM of stress-inducing substance P (Bachem Fechemikalien, Bubendorf, Switzerland) or the alpine skullcap (Scutellaria alpina) extract of Example 1 of different concentrations (0, 0.1, 1, 2 and 5 ppm). The cells not treated with substance P or the alpine skullcap (Scutellaria alpina) extract of Example 1 were used as a control group.
The culture medium of the cells treated with the extract in (2) of Test Example 1 were recovered and the amount of endothelin 1 (EDN1) comprised in the medium was measured at 450 nm using the human total endothelin ELISA kit (MyBioSource, USA).
Endothelin content (%)=(Absorbance/Total protein)×100 [Equation 1]

[3] = test system: NK1R (neurokinin 1 receptor) gene; test: Gene expression assay by real-time PCR (NK1R) in melanocytes; details: melanocytes (KaMC), 2 nM substance P, 5 days
Experimental: as §1

CSCC[C@H](NC(=O)[C@H](CC(C)C)NC(=O)CNC(=O)[C@H](Cc1ccccc1)NC(=O)[C@H](Cc1ccccc1)NC(=O)[C@H](CCC(N)=O)NC(=O)[C@H](CCC(N)=O)NC(=O)[C@@H]1CCCN1C(=O)[C@H](CCCCN)NC(=O)[C@@H]1CCCN1C(=O)[C@@H](N)CCCN=C(N)N)C(N)=O [substance P]
expression of the EDN1 gene (relative quantification vs GAPDH, control group = 1) [1]: 3.3 | content of endothelin 1 (Absorbance/Total protein x 100, control group = 100%) [2]: 124% | expression of the NK1R gene (relative quantification vs GAPDH, control group = 1) [3]: 3.8
